Test results: publication PMC3921447, “Homologous and heterologous desensitization of guanylyl cyclase-B signaling in GH3 somatolactotropes” (Cell and Tissue Research, 2013)

Assays:
GC-B = target: T1, GC-B (Rattus norvegicus, UniProt P16067); experiment: GC-B protein expression by Western blot in GH3 cells; format: cell-based; conditions: 100 nM CNP, up to 24 h; n = 3; Fig. 4b
T1 construct: rapid homologous desensitization of endogenous GC-B receptors in GH3 cells; endogenous in cells; host or cells: GH3 rat somatolactotrope cells
T1 sequence (P16067 17-1047): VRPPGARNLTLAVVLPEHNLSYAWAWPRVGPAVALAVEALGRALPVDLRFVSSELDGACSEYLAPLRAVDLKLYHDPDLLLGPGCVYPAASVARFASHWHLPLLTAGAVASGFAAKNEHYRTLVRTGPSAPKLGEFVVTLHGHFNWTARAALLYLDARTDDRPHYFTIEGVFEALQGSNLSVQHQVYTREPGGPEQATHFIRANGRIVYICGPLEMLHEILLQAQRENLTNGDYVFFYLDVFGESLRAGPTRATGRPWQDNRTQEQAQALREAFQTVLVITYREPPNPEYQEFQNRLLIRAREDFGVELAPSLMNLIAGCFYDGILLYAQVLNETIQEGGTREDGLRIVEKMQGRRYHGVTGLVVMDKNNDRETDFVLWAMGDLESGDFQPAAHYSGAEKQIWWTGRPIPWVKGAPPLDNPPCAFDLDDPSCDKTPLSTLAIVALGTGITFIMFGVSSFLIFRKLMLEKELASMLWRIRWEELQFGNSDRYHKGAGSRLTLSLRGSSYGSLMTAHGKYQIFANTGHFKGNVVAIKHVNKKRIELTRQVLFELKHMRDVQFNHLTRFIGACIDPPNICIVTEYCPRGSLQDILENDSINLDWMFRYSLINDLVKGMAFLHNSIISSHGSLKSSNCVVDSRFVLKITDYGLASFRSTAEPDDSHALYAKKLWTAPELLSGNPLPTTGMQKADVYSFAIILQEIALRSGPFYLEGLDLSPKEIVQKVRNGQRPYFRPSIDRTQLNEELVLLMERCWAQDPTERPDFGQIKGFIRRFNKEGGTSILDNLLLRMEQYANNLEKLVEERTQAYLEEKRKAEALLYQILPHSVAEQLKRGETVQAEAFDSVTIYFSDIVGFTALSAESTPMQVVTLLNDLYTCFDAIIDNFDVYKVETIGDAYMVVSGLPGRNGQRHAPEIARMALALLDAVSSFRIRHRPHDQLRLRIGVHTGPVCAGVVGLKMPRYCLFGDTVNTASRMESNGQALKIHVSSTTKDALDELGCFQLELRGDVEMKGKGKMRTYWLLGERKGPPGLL
Procedure: GH3 cell lysates (from 1 × 10^6 cells) were prepared in lysis buffer (0.5 M TRIS pH 6.8, 10 % [v/v] glycerol, 1 % [w/v] SDS). Protein lysates were sonicated, boiled at 95 °C for 5 min, resolved by 10 % SDS-polyacrylamide gel electrophoresis, transferred to polyvivylidene difluoride membrane and probed for GC-B (1:2000 dilution) or β-actin (1:5000 dilution) expression. Appropriate horseradish-peroxidase-conjugated secondary antibodies were purchased from DAKO.
We next examined whether Npr2 or GC-B down-regulation (as determined by a reduction in Npr2 mRNA expression and or GC-B protein expression) mediated the inhibitory effects of sustained CNP exposure. The effect of CNP exposure on the expression of the endogenous Npr2 gene was examined by using qPCR. […] To establish whether down-regulation occurred at the protein level, total proteins were extracted from GH3 cells incubated for up to 24 h with 100 nM CNP.
Fig. 4 CNP fails to alter expression of Npr2 mRNA or GC-B protein in GH3 somatolactotrope cells. a GH3 cells were stimulated with 0 or 100 nM CNP for 24 h prior to extraction of total RNA, cDNA synthesis, and quantitative PCR for endogenous Npr2 expression. […] Blots were stripped and re-probed for β-actin. Panels are representative of three independent experiments (n = 3)

GC-A = conditions: ref Suga et al. [1992]; cited from earlier work
From the text: (§1) As activation of either GC-B or GC-A signaling leads to an increase in cGMP concentrations, we examined whether stimulation of each receptor would lead to the desensitization of the other receptor.

αT3-1 cells = conditions: ref Fowkes et al. [2000]; cited from earlier work
From the text: as §1

growth hormone secretion = conditions: ref Hartt et al. [1995]; Shimekake et al. [1994]; cited from earlier work
From the text: Both humans and mice with mutations in the genes encoding either CNP or its receptor, GC-B, suffer from severe growth disorders (Chusho et al. [2001]) and, in some cases, growth hormone deficiency (Tamura et al. [2004]). Despite significant homology between the three natriuretic peptides and between their receptors, mutations in the genes encoding ANP, BNP, or GC-A fail to phenocopy CNP/GC-B-disrupted mice (Kishimoto et al. [2011]). Our recent observations of GC-B expression in normal fetal pituitary tissue and in a range of human pituitary adenomas (including those from acromegalics) strongly ...

GC-A and GC-B receptors = conditions: prolonged exposure; ref Fan et al. [2005]; Dickey et al. [2011]; cited from earlier work
From the text: Pharmacological regulation of the GC-B receptor has been elegantly described through many studies by Potter and Hunter ([1998a], [1999]) who have shown that dephosphorylation of specific serine and threonine residues of the GC-B receptor leads to rapid homologous desensitization. In keeping with the extensive literature describing the regulation of GC-A receptors (Potter et al. [2006]), enhancement of protein kinase C (PKC) activity leads to heterologous desensitization (Potter and Hunter [2000]).

**Q.** Which GC-B protein expression (GC-B) does the source give for `CC[C@H](C)[C@@H]1NC(=O)[C@H](CCCNC(=N)N)NC(=O)[C@H](CC(=O)O)NC(=O)[C@H](CC(C)C)NC(=O)[C@H](CCCCN)NC(=O)[C@H](CC(C)C)NC(=O)CNC(=O)[C@H](Cc2ccccc2)NC(=O)[C@@H](NC(=O)CNC(=O)[C@H](CCCCN)NC(=O)[C@H](CO)NC(=O)[C@H](CC(C)C)NC(=O)CN)CSSC[C@@H](C(=O)O)NC(=O)CNC(=O)[C@H](CC(C)C)NC(=O)CNC(=O)[C@H](CO)NC(=O)[C@H](CCSC)NC(=O)[C@H](CO)NC(=O)CNC1=O` [CNP, C-type natriuretic peptide] here?
**A.** The GC-B protein expression was “failed to alter expression levels”.

**Q.** What about the “activation of the reciprocal receptor” value (GC-A) of the same compound?
**A.** Its value is “can activate the reciprocal receptor, albeit only at pharmacological concentrations”.

**Q.** What about the “desensitization of the other receptor” value (αT3-1 cells) of the same compound?
**A.** Its value is “fail to desensitize the other receptor”.

**Q.** And the growth hormone secretion (growth hormone secretion)?
**A.** Its growth hormone secretion is “act as growth hormone secretogogs”.

**Q.** What about the agonist-induced internalization (GC-A and GC-B receptors) of the same compound?
**A.** The agonist-induced internalization was “does not appear to cause agonist-induced internalization”.
